Data published in patent US20250339443A1, “METHOD FOR TREATING OR PREVENTING CALCIUM RELEASE-ACTIVATED CALCIUM CHANNEL OR DISCOIDIN DOMAIN RECEPTOR 2 RELATED DISORDERS OR CONDITIONS” (LumiSTAR Biotechnology, Inc., priority 2023, published 2025).

Biological target: CRAC channel (Homo sapiens, UniProt Q96D31)
Test: SOCE in macrophages
Assay type: cell-based
Design: endogenous in cells; host or cells: HEK293T
Details: 10 μM
Protocol: The effects of BTP2, WRG-28, Av, and CM-4620 on SOCE were evaluated in T cells (FIG. 4A) and macrophages (FIG. 4E). Cells were cultured on glass-bottom 96-well plates and pretreated with various compounds (10 μM) while being loaded with Fura 2-AM. Subsequently, the cytosolic calcium signal waves were recorded, and the second peak of each wave and rate of entry were assessed. Each bar represents the mean value derived from, 43 to 111 cells for T cells (FIG. 4A), and 52 to 91 cells for macrophages (FIG. 4E). Cytokine induction in T cells and macrophages was conducted as described in the methods section. The levels of cytokines, including IL-2, TNF-α, and IL-6 in the culture medium were assessed using ELISA kits for T cells (FIG. 4B, FIG. 4C, and FIG. 4D) and macrophages (FIG. 4F, FIG. 4G, and FIG. 4H), respectively. Each bar represents the mean±SEM. In all the graphs, *, **, and *** denote p-values of <0.05, 0.01, and 0.001, respectively. […]
Cells cultured on a glass-bottom 96 well plate for 48 hours were treated with different compounds (10 μM) and Fura 2-AM (1 μM) simultaneously in a solution containing 145 mM NaCl, 2.8 mM KCl, 2 mM CaCl2, 2 mM MgCl2, 10 mM D-glucose, 10 mM HEPES, pH 7.4 for 40 minutes in the dark. […] All the images were analyzed by using IGOR Pro software. […]

CRAC channel, sequence (Q96D31 whole entry): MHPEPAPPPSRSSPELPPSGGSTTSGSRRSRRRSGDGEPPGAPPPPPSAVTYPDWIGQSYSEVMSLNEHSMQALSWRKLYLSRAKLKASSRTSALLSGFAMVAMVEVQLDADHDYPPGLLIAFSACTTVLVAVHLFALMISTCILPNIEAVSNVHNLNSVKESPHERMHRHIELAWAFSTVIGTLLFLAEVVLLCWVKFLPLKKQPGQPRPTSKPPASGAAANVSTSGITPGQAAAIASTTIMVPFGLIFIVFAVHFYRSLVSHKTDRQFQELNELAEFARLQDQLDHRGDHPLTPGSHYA

Structure (SMILES): CCNS(=O)(=O)c1ccc(COc2ccc3nc4ccc(=O)cc-4oc3c2)cc1 [WRG-28]
- SOCE in macrophages: higher efficacy compared to Av
